Reference: publication PMC6640931 (ACS Omega, 2017)
“And” between values parts separate entries of the source, which are not always exact repeats. Equal values may be shown once.

Columns and labels:
[1] = Thermogravimetric analysis; assay type: physicochemical; settings: under nitrogen, 5 °C/min
[2] = Equilibrium solubility in deionized water; settings: for solubility, acyclovir active: DI water (pH 6.92), room temperature; for solubility: DI water (pH = 6.92)
[3] = Solubility in simulated body fluids; assay type: physicochemical
[4] = cited from earlier work
[5] = cited from earlier work; remark: listed apart in the source

C[N+](C)(C)CCO.Nc1nc2c(ncn2COCCO)c(=O)[nH]1 [[Cho][Acy] (1), Choline Acyclovir]
T5% (decomposition of 5% of the sample), TGA [1]: 131 °C

CCCCC(CC)COC(=O)CC(C(=O)OCC(CC)CCCC)S(=O)(=O)O.Nc1nc2c(ncn2COCCO)c(=O)[nH]1 (stereo not drawn) [[H2Acy][Doc] (6), Acyclovir Docusate]
T5% (decomposition of 5% of the sample), TGA [1]: 122.1 °C
solubility, acyclovir active [2]: 2.948(4) mg active/mL
solubility [2]: 2.9 mg acyclovir active/mL

CCCCCCCCCCCCCCCC[N+](C)(C)C.Nc1nc2c(ncn2COCCO)c(=O)[n-]1 [[N1,1,1,16][Acy] (4), Hexadecyltrimethylammonium Acyclovir]
solubility, acyclovir active [2]: 101.3(5) mg active/mL
solubility [2]: 101.3 mg acyclovir active/mL

CCCC[N+](CCCC)(CCCC)CCCC.Nc1nc2c(ncn2COCCO)c(=O)[n-]1 [[N4,4,4,4][Acy] (3), Tetrabutylammonium Acyclovir]
solubility, acyclovir active [2]: 213.7 mg active/mL
solubility [2]: 213.7 mg acyclovir active/mL
solubility, acyclovir active ([3]; PBS, pH 7.4): 220(20) mg active/mL
solubility, acyclovir active ([3]; SGF, pH 1.2): 170(20) mg active/mL
solubility, acyclovir active ([3]; SIF, pH 6.8): 140(10) mg active/mL
acyclovir active delivered relative to acyclovir itself ([3]; across the three media (PBS, SIF, SGF), depending on the medium): ca. 150 times

Nc1nc2c(ncn2COCCO)c(=O)[nH]1 [acyclovir (3Acy·2H2O), 9-[(2-hydroxyethoxy)methyl]guanine, reference compound]
T5% (decomposition of 5% of the sample), TGA [1]: 240.1 °C
solubility in water ([4]; at 22–25 °C): 1200 to 1600 µg/mL
solubility ([3]; simulated intestinal fluid (SIF), pH 6.8, thermodynamic from solid): 4440 µM and 1000 µg/mL

C[N+](C)(C)CCO.Cc1ccc(C(=O)c2ccc(CC(=O)[O-])n2C)cc1 [choline tolmetin]
water solubility of choline salt relative to neutral form [4]: 8000 times

CC(C)[C@H](N)C(=O)OCCOCn1cnc2c(=O)[nH]c(N)nc21 [valacyclovir]
oral bioavailability [5]: ca. 55%
oral bioavailability relative to acyclovir [5]: 3 times
